Article PMC12472494, “Anticonvulsant Potential of 1-Aryl-6,7-dimethoxy-1,2,3,4-tetrahydroisoquinolines: Insights from Strychnine and Nicotine Models in In Vivo and In Silico Studies” (Pharmaceuticals, 2025)
“And” between values parts separate entries of the source, which are not always exact repeats. Identical values can stand only once.

Experiments:
[1] = system: tremorogenic and convulsive actions of nicotine; experiment: Nicotine-induced tremor and seizure model; assay type: in vivo, mice; details: for responders at 1 mg/kg: Mus musculus, po, read-out: Survival Rate; for survival rate of the animals increased to: at low doses (0.1–5 mg/kg); for activity against tremorogenic and convulsive actions of nicotine versus reference drugs (in words): doses of 0.1–5 mg/kg; for survival of poisoned animals compared to carbamazepine and valproate (in words): mouse, in vivo; for Duration of Seizures / Latency to Seizure Onset: oral dose 1.0 mg/kg 60 min before nicotine 10 mg/kg s.c., mean ± SD, N = 10
Excerpt: (§1) The anticonvulsant effects of the examined substances were studied in male white mice weighing 18–22 g, divided into the following groups: control (including the strychnine and nicotine groups), carbamazepine group, Convulex group, and experimental groups (one for each tested substance). Simple randomization (“heads or tails” coin toss) was used to assign animals to groups. Each group contained 10 animals. Healthy animals were included in the experiments after a 14-day quarantine period. No animals were excluded from the study. Convulsant agents were administered subcutaneously at doses of 10.0 mg/kg for nicotine (Sigma–Aldrich, Saint Louis, MO, USA) and 1.5 mg/kg for strychnine (Sigma–Aldrich, Saint Louis, MO, USA), 60 min after the oral administration of the test substances at doses ranging from 0.1 to 10 mg/kg. The onset time, duration of tremors and seizures, and survival rate of the animals were recorded. Carbamazepine (Darnitsa, Kiev, Ukraine) at doses of 5.0–10.0 mg/kg and Convulex (valproate) (Gerot Pharmazeutika GmbH, Vienna, Austria) at doses of 75.0–100.0 mg/kg (based on the therapeutic anticonvulsant dose) were used as reference drugs.
(§2) Data were presented as mean ± SD for different groups. Statistical analysis was performed using OriginPro 9.0 (MicroCal Software, Northampton, MA, USA), with p < 0.05 considered statistically significant.

[2] = system: strychnine-induced seizures; experiment: Strychnine-induced seizure model; assay type: in vivo, mice; details: oral dose 1.0 mg/kg 60 min before strychnine 1.5 mg/kg s.c., N = 10; for responders at 1 mg/kg: Mus musculus, read-out: Survival Rate; for Duration of Tremor and Seizures / Latency to Tremor and Seizure Onset: mean ± SD
Excerpt: as §1, §2

[3] = design: method as in PMID 36677539; details: per os; cited from earlier work

Row | Structure (SMILES) | responders at 1 mg/kg [1] | survival rate of the animals increased to [1] | activity against tremorogenic and convulsive actions of nicotine versus reference drugs (in words) [1] | survival of poisoned animals compared to carbamazepine and valproate (in words) [1] | Duration of Seizures [1] | Latency to Seizure Onset [1] | responders at 1 mg/kg [2] | Duration of Tremor and Seizures [2] | Latency to Tremor and Seizure Onset [2] | LD50 [3]
1 | COc1cc2c(cc1OC)C(c1ccc(OC)c(O)c1Br)NCC2 (centres unmarked) [Compound 27, 1-(2′-Bromo-3′-hydroxy-4′-methoxyphenyl)-6,7-dimethoxy-1,2,3,4-tetrahydroisoquinoline] | 90% | 90–100% | comparable activity to the reference drugs | did not improve the survival | 9.7 ± 0.9 min | 2.2 ± 0.02 min | 40% | 0.53 ± 0.3 min | 10.5 ± 1.5 min | 4700 mg/kg and 4937 mg/kg and 4937.4 (4827.7 ± 5084.9) mg/kg
2 | COc1cc2c(cc1OC)C(c1cc(Br)c(O)c(OC)c1)NCC2 (centres unmarked) [Compound 28, 1-(5′-Bromo-4′-hydroxy-3′-methoxyphenyl)-6,7-dimethoxy-1,2,3,4-tetrahydroisoquinoline] | 70% | – | – | did not improve the survival | 9.2 ± 0.4 min | 2.7 ± 0.04 min | 20% | 0.34 ± 0.8 min | 15.5 ± 1.5 min | 1532.7 (1471.5 ± 1579.5) mg/kg
3 | COc1cc2c(cc1OC)C(c1ccc3c(c1)OCO3)NCC2 (centres unmarked) [Compound 29, 1-(3′,4′-Methylenedioxyphenyl)-6,7-dimethoxy-1,2,3,4-tetrahydroisoquinoline] | 90% | 90–100% | comparable activity to the reference drugs | – | 3.7 ± 0.9 min | 2.5 ± 0.07 min | 50% | 0.32 ± 0.9 min | 12.5 ± 1.8 min | 267.2 (226.3 ± 301.1) mg/kg
4 | COc1cc2c(cc1OC)C(c1cc3c(cc1Br)OCO3)NCC2 (centres unmarked) [Compound 30, 1-(2′-Bromo-4′,5′-methylenedioxyphenyl)-6,7-dimethoxy-1,2,3,4-tetrahydroisoquinoline] | 90% | 90–100% | comparable activity to the reference drugs | – | 7.0 ± 0.2 min | 2.5 ± 0.09 min | 30% | 0.41 ± 0.4 min | 11.2 ± 1.2 min | 711.7 (604.3 ± 792.9) mg/kg
5 | COc1cc2c(cc1OC)C(c1cc3c(cc1Cl)OCO3)NCC2 (centres unmarked) [Compound 31, 1-(4′,5′-Methylenedioxy-2′-chlorophenyl)-6,7-dimethoxy-1,2,3,4-tetrahydroisoquinoline] | 90% | 90–100% | comparable activity to the reference drugs | – | 10.7 ± 0.9 min | 2.3 ± 0.08 min | 30% | 0.59 ± 0.5 min | 13.6 ± 1.9 min | 520.8 (491.9 ± 545.4) mg/kg
6 | COc1cc2c(cc1OC)C(c1ccccc1N)NCC2 (centres unmarked) [Compound 32, 1-(2′-Aminophenyl)-6,7-dimethoxy-1,2,3,4-tetrahydroisoquinoline] | 60% | – | – | – | 12.2 ± 0.8 min | 1.8 ± 0.06 min | 50% | 0.34 ± 0.4 min | 18.2 ± 1.7 min | 366.3 (326.3 ± 395.6) mg/kg
7 | COc1cc2c(cc1OC)C(c1cccc(N)c1)NCC2 (centres unmarked) [Compound 33, 1-(3′-Aminophenyl)-6,7-dimethoxy-1,2,3,4-tetrahydroisoquinoline] | 80% | – | – | – | 17.0 ± 0.6 min | 2.2 ± 0.04 min | 50% | 0.42 ± 0.8 min | 16.7 ± 1.0 min | 732.0 (598.2 ± 885.4) mg/kg
8 | COc1cc2c(cc1OC)C(c1ccc(N)cc1)NCC2 (centres unmarked) [Compound 34, 1-(4′-Aminophenyl)-6,7-dimethoxy-1,2,3,4-tetrahydroisoquinoline] | 90% | 90–100% | comparable activity to the reference drugs | – | 10.2 ± 0.7 min | 2.2 ± 0.04 min | 40% | 0.34 ± 0.7 min | 15.5 ± 1.8 min | 1043.2 (993.3 ± 1082.6) mg/kg
